ChEMBL document CHEMBL4033627, “Quest for steroidomimetics: Amino acids derived steroidal and nonsteroidal architectures” (Eur J Med Chem, 2017)

Columns and labels:
MCF7 = experiment: Anticancer activity against human MCF7 cells after 24 hrs by MTT assay; assay type: functional, cell-based; details: MCF7, 24 h
MDA-MB-231 = experiment: Anticancer activity against human MDA-MB-231 cells after 24 hrs by MTT assay; assay type: functional, cell-based; details: MDA-MB-231, 24 h

- IC50 (MCF7): 20 µM
- IC50 (MDA-MB-231): 30 µM
Structure (SMILES): Cc1ccc(S(=O)(=O)N2Cc3ccccc3OC[C@@H]2Cc2ccc(O)cc2)cc1
